For assay [1], the system named is mast cells. Kind of assay: Histamine release from rat isolated peritoneal mast cells and its inhibition. In kind it is cell-based, male Wistar rat. Conditions: for Histamine Release (%) / inhibition at 5 µM: Sanguinarine 5 µM. As for the experimental part:
In exemplifying the invention, mast cells were isolated from the peritoneal fluid of male Wistar rat as described in Sugiyama, K. (1971) Japan J. Pharmacol. 21, 209-226. The mast cells were suspended in a phosphate buffered saline solution consisting of 154 mM sodium chloride, 2.7mM potassium chloride, 0.9 mM calcium chloride, 6.7 mM KH₂PO₄-Na₂HPO₄, (pH 7.3), and 0.01% bovine serum albumin obtained from Sigma.
For the determination of histamine release and its inhibition by sangainarine., mast cells at a cell density of 10⁵ cells/ml suspended in 0.5 ml of phosphate-buffered saline, were incubated at 37°C for 10 minutes with histamine releasers, more about which is stated below. Sanguinarine was added 5 minutes before the specific histamine releaser. After the action was terminated by the addition of 1.5 ml of ice-cold phosphate-buffered saline solution, the samples were centrifuged at 2,000 rpm for 15 minutes. The histamine in the supernatants and precipitates was determined according to the method of Shore, P.A., Burkhalter, A. and Cohn N.H. (1959) J. Pharmacol. Exp Ther. 127, 182-186. Release of histamine was expressed as a percentage of the total cell content. Percentages of inhibition by sanguinarine were measured according to the following equation: [formula] The sanguinarine chloride was provided from Vipont Laboratories Inc. and is manufactured in the manner disclosed above.
Histidine-rich polypetide fraction A, known as HRP(F-A) was purified from human saliva in accordance with the procedure of Sugiyama, K., Suzuki, Y and Furuta, H (1985) Life Sciences. 37, 475-480. The comparison was carried out with known histamine releasers, namely, 48/80; Concanavalin A; calcium-ionophore A23187. These releasers may be obtained from Sigma Co.
With regard to Figure 1, inhibition by sanguinarine of histamine release induced by compound 48/80 is shown. The mast cells were incubated at 37°C for 10 minutes with and without compound 48/80 in the presence of sanguinarine in varying concentrations. (●) Sanguinarine with compound 48/80 (0.5 µ g/ml), (0) Sanguinarine without compound 48/80.

In assay [2] the test system is mast cells. The note with it: release produced by compound 48/80, calcium-ionophore A23187, basic peptide 401; read-out: IC50, inhibition of histamine release; cited from earlier work.
Assay [3] concerns mast cells. Kind of assay: Literature (Pearce et al. 1979): inhibition of histamine release produced by compound 48/80, calcium-ionophore A23187 and basic peptide 401. In kind it is cell-based. The note with it: comparison of IC50 with sanguinarine inhibited histamine release.
Assay [4] concerns mast cells. The note with it: compound 48/80; read-out: IC50, compound 48/80 induced histamine release; cited from earlier work.

Structures are written as SMILES. Read-outs that look alike come from different tables or passages of the source.

Broadly, the inhibition is the drop in the measured response relative to a control, in per cent. Take `C[n+]1cc2c3c(ccc2c2ccc4cc5c(cc4c21)OCO5)OCO3` [Sanguinarine, sanguinarine]: the “Histamine Release (%)” value is 21.1% in the assay on mast cells [1] (A23187 (1 µ M)); 15.4% in the assay with mast cells [1] (Compound 48/80 (0.5 µ g/ml)); 27.3% in the assay with mast cells [1] (Con A (10 µg/ml) in the presence of phosphatidylserine (10 µ g/ml)); 17.6% in the assay with mast cells [1] (HRP (16 µ M)); 93.8% in the assay with mast cells [1] (Triton X-100 (0.01 %)). In addition, in the assay on mast cells [1] (Rattus norvegicus, Mast cell, 10 min, compound 48/80 (0.5 µ g/ml), 37°C, 10 minutes, Figure 1, read-out: IC50 (inhibition concentration), 48/80 induced histamine release from mast cells), the IC50 is about 2000 nM. Further, the inhibition at 5 µM was 63.4% in the assay on mast cells [1] (Rattus norvegicus, Mast cell, A23187 (1 µ M)); 78.7% in the assay with mast cells [1] (Rattus norvegicus, Mast cell, Compound 48/80 (0.5 µ g/ml)); 56.6% in the assay with mast cells [1] (Rattus norvegicus, Mast cell, Con A (10 µg/ml) in the presence of phosphatidylserine (10 µ g/ml)); 69.4% with mast cells [1] (Rattus norvegicus, Mast cell, HRP (16 µ M)); -10.6% in the assay on mast cells [1] (Rattus norvegicus, Mast cell, Triton X-100 (0.01 %)).

Consider `O=C(O)c1cc(=O)c2c(OCC(O)COc3cccc4oc(C(=O)O)cc(=O)c34)cccc2o1` [cromoglycate], for which the IC50 with mast cells [2] was 10 to 1000 µM. The “times less active than sanguinarine” value with mast cells [3] lay within 10 to 100 times.

With `C[C@]12CCC(=O)C=C1CC[C@@H]1[C@@H]2[C@@H](O)C[C@@]2(C)[C@H]1CC[C@]2(O)C(=O)CO` [hydrocortisone], in the assay on mast cells [4], the IC50 is 2.1 mM.

Consider `COc1ccc2c(c1)c(CC(=O)O)c(C)n2C(=O)c1ccc(Cl)cc1` [indomethacin], for which, in the assay with mast cells [4], the IC50 was 0.075 mM.

As for `O=C([O-])c1ccccc1O.[Na+]` [sodium salicylate], the IC50 with mast cells [4] was 1.6 mM.

As for `Cn1c(=O)c2[nH]cnc2n(C)c1=O` [theophylline], the IC50 in the assay on mast cells [2] is 10 to 1000 µM. Besides, the “times less active than sanguinarine” value in the assay on mast cells [3] fell in the range of 10 to 100 times.

Source of the values: patent EP0326628A1, “Method for inhibiting the release of histamine” (VIPONT PHARMACEUTICAL, INC., priority 1988, dated 1989).
